Source: US20180179166A1, “SMALL MOLECULE INHIBITORS OF GP120-MEDIATED HIV INFECTION AND METHODS OF USE” (ViroCarb Inc., priority 2014, published 2018)

Target: R5 gp120 (Human immunodeficiency virus type 1 group M subtype B, UniProt P35961)
Details: CD4/CCR5 transfected U87 cells; 20 μg/mL gp120; western blot
Experimental: Cell bound R5 gp120 was detected by western blot. […] Lanes 1: cells alone; Cells treated with 2: 20 μg/mL gp120; 3: 20 μg/mL gp120+20 μM adaGb Gb3; 4: 20 μg/mL gp120+50 μM ada Gb3; 5: 20 μg/mL gp120+150 μM ada Gb3; 6: 20 μg/mL gp120+5 μg/mL solCD4; 7: 20 μg/mL gp120+5 μg/mL solCD4+20 μM ada Gb3; 8: 20 μg/mL gp120+5 μg/mL solCD4+50 μM ada Gb3; 9: 20 μg/mL gp120+5 μg/mL solCD4+150 μM ada Gb3; 10: 20 μg/mL gp120+50 μM.

CCCCCCCCCCCCC/C=C/[C@@H](O)[C@H](CO[C@@H]1O[C@H](CO)[C@@H](O[C@@H]2O[C@H](CO)[C@H](O[C@H]3O[C@H](CO)[C@H](O)[C@H](O)[C@H]3O)[C@H](O)[C@H]2O)[C@H](O)[C@H]1O)NC(=O)CC12CC3CC(CC(C3)C1)C2 [AdamantylGb3]
binding of R5 gp120 to CCR5 of cells after pretreatment of gp120: reduces its binding to CCR5 of cells
